What all share (experiment): Cytotoxicity (SRB) assay with CalcuSyn combination analysis
Type in all cases: cell-based

One test concerns JHOC-5 cells. To be noted: Homo sapiens, Table 5, single drug, median effect, read-out: Dm. Here is the method: (§1) Cytotoxicity assay. Cells were seeded in 96-well plates, with 2000 cells in 100 μL/well, and cultured for 24 h. The cells were treated with serial dilutions of drugs or without drug for an additional 72 h. Cell number was determined using a sulforhodamine B (SRB) assay, as previously described^23. Briefly, cells were fixed with 20% trichloroacetic acid (TCA), air-dried, and stained with 0.4% SRB dissolved in 1% acetic acid. After washing, protein-bound dye was solubilized with 10 mM unbuffered Tris-base solution (pH 10.5) and detected at 510 nm using a microplate reader. Percentage of cell-growth was calculated using the following formula: % cell growth=[(Absorbance sample)/(Absorbance untreated)]×100
(§2) Using CalcuSyn software (Biosoft), dose-effect curves were generated, and drug concentrations corresponding to a 50% decrease in cell number (IC50) were determined.
(§3) The drug concentrations corresponding to a median effect (Dm) are shown for each treatment; teriflunomide concentration is shown for combination (Combo) treatment at a 10:1 fixed molar ratio of two drugs, teriflunomide and AZD6738. […] CIwt<0.8, =0.8 to 1.2, and >1.2 indicates synergism, an additive effect, and antagonism, respectively. A CIwt value was calculated using the formula: CIwt=(ED50+2ED75+3ED90)/6. Datasets from at least three independent experiments were combined, and each table cell contains the mean value±SD.

A further test concerns HEC-1A cells. The settings on record: Homo sapiens, Table 6, single drug, median effect, read-out: Dm. Here is the method: as §1, §2, §3
The subject of another test is ES2 shARID1A (b) cells. The settings on record: Homo sapiens, read-out: Dm. Here is the method:
(§4) Short Hairpin RNA (shRNA)-Mediated Knockdown and Expression of ARID1A in ovarian and endometrial carcinoma cells. shRNA lentiviral supernatants were produced using standard protocols, as previously described^8. Vectors were transfected into HEK293FT cells using X-tremeGENE 9 DNA Transfection Reagent (from Roche). Retroviral supernatants isolated at 48 h were diluted 1:1 in culture medium and used to infect ARID1A-wildtype ES2 and KLE cell lines. Stably transfected subclones were expanded using puromycin (from Dot Scientific) drug selection. For expression of ARID1A in the ARID1A-mutant HEC-1-A cell line, pCIN4-HA-ARID1A was transfected using X-tremeGENE 9 DNA Transfection Reagent (from Roche), followed by selection with G418 (from Gibco). For expression of ARID1A in the ARID1A-mutant SKOV3 and OVISE cell lines, V5/His-tagged pLenti-puro-LacZ and pLenti-puro-ARID1A were transfected using lentivirus. Lentivirus was produced using HEK293FT cells with the second-generation packaging system pSPAX2 (Addgene plasmid) and pMD2.G (Addgene plasmid). Stably transfected subclones were expanded using puromycin and blasticidin (Gibco) drug selection.
as §1, §2
(§5) Drug concentrations corresponding to a median effect (Dm) are shown for each treatment; teriflunomide concentration is shown for combination (Combo) treatment at a 10:1 fixed molar ratio of two drugs, teriflunomide and AZD6738. […] Datasets from at least three independent experiments were combined, and each table cell contains the mean value±SD. SCR, ES2-shScrambled. N/A, not applicable. Statistical analysis was carried out by one-way ANOVA with Bonferroni's post-hoc test, and differences were considered significant at **P<0.01 and ***P<0.001 as compared to the ES2 parental group with the same drug treatment.
(§6) Drug concentrations (in μM for teriflunomide, in nM for […]) corresponding to median effect (Dm) are shown for each treatment; teriflunomide concentration is shown for combination (Combo) treatment at a 200:1 fixed molar ratio of the two drugs, teriflunomide and VX-970. […] CIwt<0.8, =0.8 to 1.2, and >1.2 indicates synergism, an additive effect, and antagonism, respectively. CIwt value was calculated using the formula: CIwt=(ED50+2ED75+3ED90)/6. Datasets from at least three independent experiments were combined, and each table cell contains the mean value±SD. Teri, teriflunomide. SCR, ES2-shScrambled. N/A, not applicable. Statistical analysis was carried out by one-way ANOVA with Bonferroni's post-hoc test, and differences were considered significant at ***P<0.001 as compared to the ES2 parental group with the same drug treatment.

For test [1], the system named is ES2-shScrambled (SCR) cells. The settings on record: Homo sapiens, read-out: Dm. Here is the method: as §4, §1, §2, §5, §6
In another test the test system is ES2 shARID1A (a) cells. The settings on record: Homo sapiens, read-out: Dm. Here is the method: as §4, §1, §2, §5, §6
A further test concerns A2780 cells. The settings on record: Homo sapiens, Table 4, single drug, median effect, read-out: Dm. Here is the method: as §1, §2
Drug concentrations corresponding to a median effect (Dm) are shown for each treatment; teriflunomide concentration is shown for a combination (Combo) treatment at a 10:1 fixed molar ratio of two drugs, teriflunomide and AZD6738. […] CIwt<0.8, =0.8 to 1.2, and >1.2 indicate synergism, an additive effect, and antagonism, respectively. A CIwt value was calculated using the formula: CIwt=(ED50+2ED75+3ED90)/6. Datasets from at least three independent experiments were combined, and each table cell contains the mean value±SD.

In the next test the test system is OVISE cells, LacZ. The settings on record: Homo sapiens, Table 3, single drug, read-out: Dm. Here is the method: as §4, §1, §2
(§7) CIwt<0.8, =0.8 to 1.2, and >1.2 indicates synergism, an additive effect, and antagonism, respectively. A CIwt value was assigned as follows: (ED50+2ED75+3ED90)/6. Datasets from at least three independent experiments were combined, and means±SD were calculated for each combination. Teri, teriflunomide. N/A, not applicable. Statistical analysis was carried out by one-way ANOVA with Bonferroni's post-hoc test, and differences were considered significant at ***P<0.001 as compared to the ARID1A restoration group induced by doxycycline with the same drug treatment.

The subject of test [2] is ARID1A-restoration OVISE cells (ARID1A Dox). To be noted: Homo sapiens, Table 3, single drug, read-out: Dm. Here is the method:
as §4, §1, §2, §7

Test [3] concerns OVISE cells, ARID1A (not induced). The settings on record: Homo sapiens, Table 3, single drug, read-out: Dm. Here is the method:
as §4, §1, §2, §7

In the next test the test system is OVISE cells, LacZ Dox. The settings on record: Homo sapiens, Table 3, single drug, read-out: Dm. Here is the method:
as §4, §1, §2, §7

[4] abbreviates: Table 1, single drug, median effect.

Read-outs that look alike come from different tables or passages of the source.

`C/C(O)=C(\C#N)C(=O)Nc1ccc(C(F)(F)F)cc1` [Teriflunomide, teriflunomide]: the IC50 was 25.2 ± 1.85 µM with JHOC-5 cells; 50.5 ± 4.99 µM in the test with HEC-1A cells; 16.8 ± 0.92 µM with ES2 shARID1A (b) cells (setting [4]); 15.5 ± 3.11 µM with ES2 shARID1A (b) cells (Table 2, teriflunomide alone); 28.2 ± 1.59 µM in test [1] (setting [4]); 26.7 ± 1.26 µM in test [1] (Table 2, teriflunomide alone). In addition, the IC50 in the test on ES2 shARID1A (a) cells (setting [4]) was 17.9 ± 1.32 µM; with ES2 shARID1A (a) cells (Table 2, teriflunomide alone), 15.6 ± 1.79 µM; with A2780 cells, 18.9 ± 1.39 µM; in the test with OVISE cells, LacZ, 18.2 ± 1.19 µM; in test [2], 109 ± 3.18 µM; in [3], 19.1 ± 1.07 µM. For the same molecule, the IC50 in the test with OVISE cells, LacZ Dox was 19.3 ± 1.24 µM.
Consider `C[C@@H]1COCCN1c1cc(C2([S@](C)(=N)=O)CC2)nc(-c2cc[nH]c3nccc2-3)n1` [AZD6738], for which the IC50 with JHOC-5 cells was 2.91 ± 0.76 µM; in the test on HEC-1A cells it was 4.47 ± 0.45 µM; with ES2 shARID1A (b) cells (setting [4]), 0.24 ± 0.03 µM; in test [1] (setting [4]), 1.18 ± 0.17 µM; in the test on ES2 shARID1A (a) cells (setting [4]), 0.2 ± 0.01 µM; in the test on A2780 cells it was 5.54 ± 1.06 µM. Also, the IC50 is 0.7 ± 0.03 µM with OVISE cells, LacZ; 6.99 ± 0.34 µM in [2]; 0.77 ± 0.16 µM in [3]; 0.67 ± 0.11 µM with OVISE cells, LacZ Dox.

(Values after patent US11801232B2, “Targeting of ARID1A-deficient cancers by inhibiting de novo pyrimidine synthesis pathway” (YALE UNIVERSITY, priority 2019, dated 2023).)
